Data set [1] has as its system Enterococcus faecalis. The experiment in a line: Antibacterial activity against vancomycin-resistant Enterococcus faecalis clinical isolates after 20 hrs by twofold serial broth dilution method. In kind it is functional.
Data set [2] concerns the target T1, 3-oxoacyl-[acyl-carrier-protein] synthase 3 (Escherichia coli) (UniProt C3TDZ2).
T1 sequence (whole entry): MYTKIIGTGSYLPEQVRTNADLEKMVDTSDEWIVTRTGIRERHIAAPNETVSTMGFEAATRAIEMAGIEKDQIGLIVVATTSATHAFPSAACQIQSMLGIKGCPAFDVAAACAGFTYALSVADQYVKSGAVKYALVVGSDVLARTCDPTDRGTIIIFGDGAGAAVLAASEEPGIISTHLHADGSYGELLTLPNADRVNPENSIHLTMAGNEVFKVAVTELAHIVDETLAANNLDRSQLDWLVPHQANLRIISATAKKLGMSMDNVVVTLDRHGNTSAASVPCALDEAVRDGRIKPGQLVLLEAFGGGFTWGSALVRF
Put plainly: Binding affinity to Escherichia coli KAS3 expressed in Escherichia coli BL21 (DE3) by NMR analysis.

The test system of data set [3] is Staphylococcus aureus. The experiment in a line: Antibacterial activity against methicillin-resistant Staphylococcus aureus CCARM 3114 after 20 hrs by twofold serial broth dilution method. In kind it is functional. Particulars: CCARM 3114, 20 h; call rule not given here.
Data set [4] deals with Enterococcus faecalis. Put plainly: Antibacterial activity against Enterococcus faecalis KCTC 2011 after 20 hrs by twofold serial broth dilution method. Type of data set: functional. The following applies: KCTC 2011, 20 h.
The test system of data set [5] is Staphylococcus aureus. Put plainly: Antibacterial activity against Staphylococcus aureus KCTC 1621 after 20 hrs by twofold serial broth dilution method. In kind it is functional. The following applies: KCTC 1621, 20 h.
Data set [6] concerns Escherichia coli. The experiment in a line: Antibacterial activity against Escherichia coli after 20 hrs by twofold serial broth dilution method. Type of data set: functional.
Data set [7] in a line: Solubility of the compound. Type of data set: physicochemical.
Data set [8] in a line: Cytotoxicity against human HaCaT cells assessed as cell survival at 16 uM after 24 hrs by MTT assay. In kind it is cell-based. The following applies: read-out: Survival.
Data set [9] relates to HaCaT. The experiment in a line: Cytotoxicity against human HaCaT cells assessed as cell survival at 100 uM after 24 hrs by MTT assay. Type of data set: cell-based.
Data set [10] has as its system HaCaT. Put plainly: Cytotoxicity against human HaCaT cells assessed as cell morphology at 100 uM after 24 hrs by phase contrast microscopy. Type of data set: cell-based.

≈ marks a conversion by molar mass, not a printed value.

For `C=C/C(C)=C/[C@@]1(C)SC(=O)C(C)=C1O` [THIOLACTOMYCIN], the MIC in data set [1] came to 128 µM (≈ 26.9 µg/mL); in data set [3], 128 µM (≈ 26.9 µg/mL); in [4] it was 256 µM (≈ 53.8 µg/mL); in data set [5], 256 µM (≈ 53.8 µg/mL); in data set [6], 128 µM (≈ 26.9 µg/mL). The same compound displayed a K in data set [2] of 1.18 ×10⁴ /M.
In the case of `O=c1c(O)c(-c2ccc(O)cc2)oc2ccc(O)cc12`, the MIC in data set [1], in data set [3], in data set [4], in data set [5] and in [6] was over 1020 µM throughout. In addition, in [2], the K worked out at 6.22 ×10⁶ /M.
As for `O=c1c(O)c(-c2ccccc2)oc2ccc(O)cc12`, the solubility entry in [7] was “Insoluble”. Also, the MIC in data set [1] was 256 µM (≈ 65.1 µg/mL); in [3] it was 16 µM (≈ 4.07 µg/mL); in data set [4] it was 128 µM (≈ 32.5 µg/mL); in [5], 16 µM (≈ 4.07 µg/mL); in data set [6], over 1020 µM. For the same compound, in [2], the K was found to be 1.32 ×10⁴ /M. Also, in [8], the viability at 24 h, 16 µM was determined as 90%.
Regarding `O=C(CCc1ccc(O)cc1)c1c(O)cc(O)cc1O` [PHLORETIN], the MIC in [1] is 128 µM (≈ 35.1 µg/mL); in data set [3], 16 µM (≈ 4.39 µg/mL); in [4], 128 µM (≈ 35.1 µg/mL); in data set [5], 32 µM (≈ 8.78 µg/mL); in [6], 128 µM (≈ 35.1 µg/mL). Further, the K in data set [2] turned out to be 2.38 ×10⁷ /M. In addition, the Activity entry in data set [9] and in data set [10] was “Not Active” each time.
For `COc1ccc(-c2coc3cc(O[C@@H]4O[C@H](CO)[C@@H](O)[C@@H](O)[C@@H]4O)cc(O)c3c2=O)cc1`, the MIC in [1], in [3], in [4], in data set [5] and in data set [6] was over 1020 µM in each case. The same compound returned a K in [2] of 5.6 ×10⁶ /M.

These data come from ChEMBL document CHEMBL1152427, “Antimicrobial natural products as beta-ketoacyl-acyl carrier protein synthase III inhibitors” (Bioorg Med Chem, 2009).
